What all share (assay type): biochemical
Assay [1] deals with T1, PIM1 (h) (Homo sapiens, UniProt P11309).
T1 construct: purchased Eurofins (KinaseProfiler)
The experiment in a line: radiometric kinase assay (KinaseProfiler, Eurofins), PIM1. The following applies: in vitro radiometric kinase assay, tested at 1 nM to 10 000 nM, no pre-incubation; read-out: inhibitory activities (IC50 values) PIM1. The protocol:
(§1) The compounds were profiled in the radiometric assays (KinaseProfiler, Eurofins).
Briefly, kinases were diluted in the buffer shown below prior to addition to the reaction mix: • CDKL3, TAF1L: 20 mM Tris/HCl pH 8.5, 0.2 mM EDTA, 0.1% β-mercaptoethanol, 0.01% Brij-35, 5% glycerol, 1 mg/ml BSA; • Haspin: 15 mM MOPS, 0.75 mM EDTA, 0.0075% Brij-35, 3.75% Glycerol, 150 mM NaCl, 0.1% β-mercaptoethanol, 1 mg/mLBSA; • CDKL4, CLK2, PIM1, TRB2: […], 1 mM EDTA, 0.01% Brij-35, 5% Glycerol, 0.1% β-mercaptoethanol, 1 mg/mL BSA.
(§2) All compounds were prepared to 50x final assay concentration in 100% DMSO. This working stock of the compound was added to the assay well as the first component in the reaction, followed by the remaining components as detailed in the general assay protocols below. There was no pre-incubation step between the compound and the kinase prior to initiation of the reaction.
PIM1 (h) was incubated with 8 mM MOPS pH 7.0, 0.2 mM EDTA, 100 µM KKRNRTLTV (SEQ ID NO. 4), 10 mM magnesium acetate and γ-^33P-ATP (specific activity and concentration as required). The reaction was initiated by the addition of the Mg/ATP mix. After incubation for 40 minutes at room temperature, the reaction was stopped by the addition of phosphoric acid to a concentration of 0.5%. An aliquot of the reaction was then spotted onto a filter and washed four times for 4 minutes in 0.425% phosphoric acid and once in methanol prior to drying and scintillation counting.
(§3) Kinase activity data were expressed as the percent remaining kinase activity in tested samples compared to the vehicle (DMSO) reactions. The compounds were tested at the following concentrations: 1 nM, 3 nM, 10 nM, 30 nM, 100 nM, 300 nM, 1000 nM, 3000 nM, and 10 000 nM; IC50 values and curve fits were then obtained.

Assay [2] has as its target T2, Haspin (h) (Homo sapiens, UniProt Q8TF76).
T2 construct: purchased Eurofins (KinaseProfiler)
T2 sequence (Q8TF76 1-798): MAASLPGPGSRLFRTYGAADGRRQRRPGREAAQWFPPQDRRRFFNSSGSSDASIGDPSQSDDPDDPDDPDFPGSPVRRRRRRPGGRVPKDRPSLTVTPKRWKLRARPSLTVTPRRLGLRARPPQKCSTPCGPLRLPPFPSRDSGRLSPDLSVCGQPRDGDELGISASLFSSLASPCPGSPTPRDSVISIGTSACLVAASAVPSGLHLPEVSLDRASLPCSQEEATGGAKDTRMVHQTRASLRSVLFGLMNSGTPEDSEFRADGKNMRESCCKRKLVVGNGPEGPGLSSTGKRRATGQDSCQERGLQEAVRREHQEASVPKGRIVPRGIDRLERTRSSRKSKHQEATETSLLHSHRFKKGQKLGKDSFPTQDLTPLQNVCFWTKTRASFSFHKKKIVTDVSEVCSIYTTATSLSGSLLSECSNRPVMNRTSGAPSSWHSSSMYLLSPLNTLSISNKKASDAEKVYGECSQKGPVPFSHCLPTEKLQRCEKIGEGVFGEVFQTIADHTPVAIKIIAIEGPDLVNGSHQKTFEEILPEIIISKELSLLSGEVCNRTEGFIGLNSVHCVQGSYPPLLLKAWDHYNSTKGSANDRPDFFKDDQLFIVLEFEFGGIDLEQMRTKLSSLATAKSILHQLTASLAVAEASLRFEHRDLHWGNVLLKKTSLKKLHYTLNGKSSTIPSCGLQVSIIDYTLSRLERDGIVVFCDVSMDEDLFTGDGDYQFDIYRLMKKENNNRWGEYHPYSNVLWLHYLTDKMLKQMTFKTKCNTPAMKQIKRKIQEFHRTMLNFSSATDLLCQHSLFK
The assay is described as follows: radiometric kinase assay (KinaseProfiler, Eurofins), Haspin. The following applies: in vitro radiometric kinase assay, tested at 1 nM to 10 000 nM, no pre-incubation; read-out: inhibitory activities (IC50 values) Haspin. In outline: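 Human Haspin in 8 mM MOPS pH 7.0 with 500 µM RARTLSFAEPG, 10 mM Mg acetate and γ-33P-ATP; compound added without preincubation. Reaction ran 40 min at room temperature, then filter-bound 33P was counted. Nine concentrations from 1 to 10 000 nM gave % remaining activity versus DMSO, and IC50 came from curve fit.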

In assay [3] the target is T3, DYRK2 (h) (Homo sapiens, UniProt Q92630).
T3 construct: purchased Eurofins (KinaseProfiler)
T3 sequence (Q92630 1-601): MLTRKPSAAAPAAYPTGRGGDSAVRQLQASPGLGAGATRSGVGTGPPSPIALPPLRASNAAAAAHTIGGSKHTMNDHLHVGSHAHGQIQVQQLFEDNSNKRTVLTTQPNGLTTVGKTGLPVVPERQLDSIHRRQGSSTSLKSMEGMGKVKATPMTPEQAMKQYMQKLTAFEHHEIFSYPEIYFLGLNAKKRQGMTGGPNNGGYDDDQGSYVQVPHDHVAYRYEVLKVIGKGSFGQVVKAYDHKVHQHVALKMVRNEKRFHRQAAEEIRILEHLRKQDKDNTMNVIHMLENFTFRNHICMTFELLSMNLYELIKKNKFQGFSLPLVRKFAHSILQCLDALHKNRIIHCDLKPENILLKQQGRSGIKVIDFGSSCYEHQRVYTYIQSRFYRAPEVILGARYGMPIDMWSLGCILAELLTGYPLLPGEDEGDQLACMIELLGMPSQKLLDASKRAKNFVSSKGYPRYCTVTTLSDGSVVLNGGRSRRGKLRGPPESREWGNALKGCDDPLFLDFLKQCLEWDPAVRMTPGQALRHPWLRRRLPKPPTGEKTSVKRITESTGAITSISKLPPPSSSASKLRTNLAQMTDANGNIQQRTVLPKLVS
The assay is described as follows: radiometric kinase assay (KinaseProfiler, Eurofins), DYRK2. The following applies: in vitro radiometric kinase assay, tested at 1 nM to 10 000 nM, no pre-incubation; read-out: inhibitory activities (IC50 values) DYRK2. The protocol: as §1, §2
DYRK2 (h) was incubated with 8 mM MOPS pH 7.0, 0.2 mM EDTA, 2 mg/mL casein, 10 mM magnesium acetate and γ-^33P-ATP (specific activity and concentration as required). The reaction was initiated by the addition of the Mg/ATP mix. After incubation for 40 minutes at room temperature, the reaction was stopped by the addition of phosphoric acid to a concentration of 0.5%. An aliquot of the reaction was then spotted onto a filter and washed four times for 4 minutes in 0.425% phosphoric acid and once in methanol prior to drying and scintillation counting.
as §3

Molecules are shown by their SMILES.

T1 sequence (P11309 whole entry): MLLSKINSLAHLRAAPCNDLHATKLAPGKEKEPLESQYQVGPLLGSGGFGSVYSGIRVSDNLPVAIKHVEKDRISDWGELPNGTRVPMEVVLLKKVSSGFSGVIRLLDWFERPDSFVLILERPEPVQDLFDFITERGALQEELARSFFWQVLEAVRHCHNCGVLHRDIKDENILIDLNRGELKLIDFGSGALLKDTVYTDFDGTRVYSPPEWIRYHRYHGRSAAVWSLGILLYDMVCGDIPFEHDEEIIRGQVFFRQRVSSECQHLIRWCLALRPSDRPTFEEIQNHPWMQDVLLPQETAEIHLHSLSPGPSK

Regarding `Cc1cc2scc(-c3ccncc3)c2nc1-c1ccn(C)n1` [Preparative Example 151, 6-methyl-5-(1-methyl-1H-pyrazol-3-yl)-3-(pyridin-4-yl)thieno[3,2-b]pyridine], the values for the half-maximal inhibitory concentration (IC50) in assay [1], in assay [2] and in assay [3] were 3 to 10 µM, 0.02 to 0.099 µM and 3 to 10 µM, respectively.

`Cn1cc(-c2ccc3scc(-c4ccccc4)c3n2)cn1` [Preparative Example 2, 5-(1-methyl-1H-pyrazol-4-yl)-3-phenylthieno[3,2-b]pyridine]: the IC50 (in general, the concentration at which inhibition is half-maximal) in assay [1] was 0.5 to 3 µM; in assay [2] it was 0.1 to 0.499 µM; in assay [3], 0.5 to 3 µM.

For the molecule `Cc1sc2ccc(-c3cnn(C)c3)nc2c1-c1ccncc1` [Preparative Example 142, 2-methyl-5-(1-methyl-1H-pyrazol-4-yl)-3-(pyridin-4-yl)thieno[3,2-b]pyridine], the IC50 in assay [1] is 3 to 10 µM; in assay [2], 0.5 to 3 µM; in assay [3], 0.5 to 3 µM.

For the molecule `Cn1cc(-c2ccc3scc(-c4ccc5ncnn5c4)c3n2)cn1` [Preparative Example 53, 3-([1,2,4]-triazolo[1,5-a]pyridin-6-yl)-5-(1-methyl-1H-pyrazol-4-yl)thieno[3,2-b]pyridine], the concentration for half-maximal inhibition (IC50) was 0.1 to 0.499 µM in assay [1], 0.02 to 0.099 µM in assay [2] and 0.1 to 0.499 µM in assay [3].

For `c1ccc(-c2csc3ccc(-c4cnoc4)nc23)cc1` [Preparative Example 124, 4-(3-phenylthieno[3,2-b]pyridin-5-yl)isoxazole], the IC50 in assay [1], in assay [2] and in assay [3] was 3 to 10 µM each time.

In the case of `Cn1cc(-c2ccc3scc(-c4ccncc4)c3n2)cn1` [Preparative Example 13, 5-(1-methyl-1H-pyrazol-4-yl)-3-(pyridin-4-yl)thieno[3,2-b]pyridine], the half-inhibitory concentration (IC50) in assay [1] was 0.1 to 0.499 µM; in assay [2], 0.02 to 0.099 µM; in assay [3], 0.5 to 3 µM.

For `Cn1cc(-c2ccc3scc(C4=CCNCC4)c3n2)cn1` [Preparative Example 9, 5-(1-methyl-1H-pyrazol-4-yl)-3-(1,2,3,6-tetrahydropyridin-4-yl)-thieno[3.2-b]pyridine], the half-inhibitory concentration (IC50) in assay [1] is 0.5 to 3 µM; in assay [2] it was 0.5 to 3 µM; in assay [3], 3 to 10 µM.

Consider `Cc1nsc(-c2csc3ccc(-c4cnn(C)c4)nc23)n1` [Preparative Example 71, 3-(3-methyl-1,2,4-thiadiazol-5-yl)-5-(1-methyl-1H-pyrazol-4-yl)thieno[3,2-b]pyridine], for which the concentration for half-maximal inhibition (IC50) in assay [1] was 0.1 to 0.499 µM; in assay [2], 0.02 to 0.099 µM; in assay [3], 0.1 to 0.499 µM.

On to `Cn1cc(-c2ccc3scc(C(=O)c4ccccc4)c3n2)cn1` [Preparative Example 73, (5-(1-methyl-1H-pyrazol-4-yl)thieno[3,2-b]pyridin-3-yl)(phenyl)-methanone], for which the IC50 in assay [1], in assay [2] and in assay [3] was 3 to 10 µM each time.

On to `c1ccc(-c2csc3ccc(-c4ccoc4)nc23)cc1` [Preparative Example 123, 5-(furan-3-yl)-3-phenylthieno[3,2-b]pyridine], for which the half-maximal inhibitory concentration (IC50) in assay [1], in assay [2] and in assay [3] was 3 to 10 µM in each case.

With `c1ccc(Cn2cc(-c3ccc4scc(-c5ccncc5)c4n3)cn2)cc1` [Preparative Example 81, 5-(1-benzyl-1H-pyrazol-4-yl)-3-(pyridin-4-yl)thieno[3,2-b]pyridine], the IC50 in assay [1] is 0.1 to 0.499 µM; in assay [2], 0.1 to 0.499 µM; in assay [3], 3 to 10 µM.

On to `Fc1cc(-c2ccc3scc(-c4ccccc4)c3n2)cc(F)c1F` [Preparative Example 122, 3-phenyl-5-(3,4,5-trifluorophenyl)thieno[3,2-b]pyridine], for which the IC50 in assay [1], in assay [2] and in assay [3] was 3 to 10 µM each time.

Regarding `FC(F)(F)n1cc(-c2ccc3scc(-c4ccncc4)c3n2)cn1` [Preparative Example 78, 3-(pyridin-4-yl)-5-(1-(trifluoromethyl)-1H-pyrazol-4-yl)thieno[3,2-b]pyridine], the IC50 in assay [1], in assay [2] and in assay [3] was 3 to 10 µM each time.

Regarding `Cn1ncc(-c2ccc3scc(-c4ccncc4)c3n2)n1` [Preparative Example 94, 5-(2-methyl-2H-1,2,3-triazol-4-yl)-3-(pyridin-4-yl)thieno[3,2-b]pyridine], the IC50 in assay [1] lay in the range of 3 to 10 µM; in assay [2] it was 0.5 to 3 µM; in assay [3], 3 to 10 µM.

On to `Cn1ccc(-c2cc(Cl)c3scc(-c4ccncc4)c3n2)n1` [Preparative Example 163, 7-chloro-5-(1-methyl-1H-pyrazol-3-yl)-3-(pyridin-4-yl)thieno[3,2-b]pyridine], for which the figures for the IC50 in assay [1], in assay [2] and in assay [3] were 3 to 10 µM, 0.1 to 0.499 µM and 3 to 10 µM, respectively.

Consider `CCn1cc(-c2ccc3scc(-c4ccncc4)c3n2)cn1` [Preparative Example 77, 5-(1-ethyl-1H-pyrazol-4-yl)-3-(pyridin-4-yl)thieno[3,2-b]pyridine], for which the IC50 in assay [1], in assay [2] and in assay [3] was 0.5 to 3 µM in each case.

Turning to `Cn1cc(-c2csc3ccc(Oc4ccccc4)nc23)cn1` [Preparative Example 139, 3-(1-methyl-1H-pyrazol-4-yl)-5-phenoxythieno[3,2-b]pyridine], the results for the IC50 in assay [1], in assay [2] and in assay [3] were 0.5 to 3 µM, 0.1 to 0.499 µM and 3 to 10 µM, respectively.

Turning to `Cc1cc(-c2csc3ccc(-c4cnn(C)c4)nc23)ccn1` [Preparative Example 15, 5-(1-methyl-1H-pyrazol-4-yl)-3-(2-methylpyridin-4-yl)-thieno[3,2-b]pyridine], the IC50 in assay [1] lay within 0.1 to 0.499 µM; in assay [2], 0.1 to 0.499 µM; in assay [3], 0.5 to 3 µM.

These data come from patent publication EP4483954A1 (Masarykova Univerzita, priority 2023, dated 2025).
